In patent US8415351B2 (priority 2007, dated 2013):

Legend:
[1] = molecular target: T1, HCV polymerase 1B (Δ21 NS5B, BK) (Hepatitis C virus genotype 1b, UniProt P26663); test: biochemical
T1 construct: 20 to 50 nM Δ21 NS5B
Method in brief: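 Δ21 NS5B (genotype 1b, BK […]) preincubated 15 min RT with inhibitor, 2 mM MnCl2, pH 7.4, 60–125 μM GTP; started with 20 μM CTP/ATP, 1 μM 3H-UTP, 5 nM template RNA, run 2–4 h RT. Spermine-precipitated RNA filter-captured, scintillation counted; IC50 from tight-binding (Morrison) fit.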

[2] = molecular target: T2, HCV polymerase 1A (Δ21 NS5B, H77) (Hepatitis C virus genotype 1a, UniProt P27958); test: biochemical; settings: IC50 1a
T2 construct: 20 to 50 nM Δ21 NS5B
Method in brief: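 Incorporation of 1 μM ^3H-UTP, with 20 μM each of CTP and ATP on 5 nM template RNA, ran 2–4 h at room temperature. Spermine-precipitated product was filtered and scintillation-counted. IC50 came from tight-binding non-linear regression of cpm against inhibitor concentration.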

[3] = tested on: genotype 1a-H77 subgenomic replicon cell line; test: microbe, parasite or virus in culture; assay type: cell-based, HCV; settings: Hepatitis C virus, read-out: EC50 1a
[4] = tested on: genotype 1b-Con1 subgenomic replicon cell line; test: microbe, parasite or virus in culture; assay type: cell-based, HCV; settings: Hepatitis C virus, read-out: EC50 1b

T2 sequence (P27958 2421-2990, stated change not applied): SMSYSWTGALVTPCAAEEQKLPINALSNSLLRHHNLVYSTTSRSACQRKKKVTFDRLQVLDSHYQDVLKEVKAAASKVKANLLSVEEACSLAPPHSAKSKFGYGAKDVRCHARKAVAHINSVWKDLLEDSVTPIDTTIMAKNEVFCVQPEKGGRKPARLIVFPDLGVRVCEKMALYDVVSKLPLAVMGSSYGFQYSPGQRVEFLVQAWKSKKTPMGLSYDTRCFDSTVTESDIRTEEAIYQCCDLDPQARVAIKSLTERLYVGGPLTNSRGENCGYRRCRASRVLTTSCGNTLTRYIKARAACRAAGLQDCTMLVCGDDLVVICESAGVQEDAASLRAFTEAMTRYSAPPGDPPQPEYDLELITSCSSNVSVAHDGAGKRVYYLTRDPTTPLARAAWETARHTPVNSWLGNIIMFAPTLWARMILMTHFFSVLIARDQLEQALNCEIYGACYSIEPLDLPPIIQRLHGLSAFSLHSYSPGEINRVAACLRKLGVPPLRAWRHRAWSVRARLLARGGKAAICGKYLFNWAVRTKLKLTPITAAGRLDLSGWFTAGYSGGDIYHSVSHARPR
T1 sequence (P26663 2420-2989, stated change not applied): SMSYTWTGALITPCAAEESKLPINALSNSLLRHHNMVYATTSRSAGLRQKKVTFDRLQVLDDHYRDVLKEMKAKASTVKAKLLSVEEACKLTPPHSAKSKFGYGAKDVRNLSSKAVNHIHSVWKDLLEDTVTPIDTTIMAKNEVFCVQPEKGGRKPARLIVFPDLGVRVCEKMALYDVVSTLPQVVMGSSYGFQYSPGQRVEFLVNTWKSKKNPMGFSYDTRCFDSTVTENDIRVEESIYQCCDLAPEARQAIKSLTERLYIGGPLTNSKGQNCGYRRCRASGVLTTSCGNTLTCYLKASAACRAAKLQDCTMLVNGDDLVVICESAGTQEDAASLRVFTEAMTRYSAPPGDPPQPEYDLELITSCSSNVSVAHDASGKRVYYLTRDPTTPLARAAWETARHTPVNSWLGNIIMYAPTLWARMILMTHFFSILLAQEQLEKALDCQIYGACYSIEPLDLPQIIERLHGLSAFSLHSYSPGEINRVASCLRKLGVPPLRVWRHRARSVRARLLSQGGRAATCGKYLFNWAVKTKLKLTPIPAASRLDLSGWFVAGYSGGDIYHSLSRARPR

Compound: COc1c(-c2ccc3c(c2)CCC3CNS(C)(=O)=O)cc(-n2ccc(=O)[nH]c2=O)cc1C(C)(C)C (stereo not shown) [IB-L0-2.17, N-((5-(3-tert-butyl-5-(2,4-dioxo-3,4-dihydropyrimidin-1(2H)-yl)-2-methoxyphenyl)-2,3-dihydro-1H-inden-1-yl)methyl)methanesulfonamide]
- IC50 [1]: 10 to 100 nM
- IC50 [2]: < 10 nM
- EC50 [3]: 10 to 100 nM
- EC50 [4]: < 10 nM

Compound: COc1c(-c2ccc3c(CNS(C)(=O)=O)coc3c2)cc(-n2ccc(=O)[nH]c2=O)cc1C(C)(C)C [IB-L0-2.18, N-((6-(3-tert-butyl-5-(2,4-dioxo-3,4-dihydropyrimidin-1(2H)-yl)-2-methoxyphenyl)benzofuran-3-yl)methyl)methanesulfonamide]
- IC50 [1]: 10 to 100 nM
- IC50 [2]: < 10 nM
- EC50 [3]: 100 to 1000 nM
- EC50 [4]: 10 to 100 nM

Compound: COc1c(-c2ccc3c(CN(C)S(C)(=O)=O)csc3c2)cc(-n2ccc(=O)[nH]c2=O)cc1C(C)(C)C [IB-L0-2.21, N-((6-(3-tert-butyl-5-(2,4-dioxo-3,4-dihydropyrimidin-1(2H)-yl)-2-methoxyphenyl)benzo[b]thiophen-3-yl)methyl)-N-methylmethanesulfonamide]
- IC50 [1]: 10 to 100 nM
- IC50 [2]: 10 to 100 nM
- EC50 [3]: 100 to 1000 nM
- EC50 [4]: 10 to 100 nM

Compound: COC(=O)NN=C1CCc2cc(-c3cc(-n4ccc(=O)[nH]c4=O)cc(C(C)(C)C)c3OC)ccc21 [IB-L0-2.24, methyl 2-(5-(3-tert-butyl-5-(2,4-dioxo-3,4-dihydropyrimidin-1(2H)-yl)-2-methoxyphenyl)-2,3-dihydro-1H-inden-1-ylidene)hydrazinecarboxylate]
- IC50 [1]: 10 to 100 nM
- IC50 [2]: 10 to 100 nM
- EC50 [3]: 10 to 100 nM
- EC50 [4]: 10 to 100 nM

Compound: COc1c(-c2ccc3c(c2)CCC3(C)CNS(C)(=O)=O)cc(-n2ccc(=O)[nH]c2=O)cc1C(C)(C)C (stereo not shown) [IB-L0-2.25, N-((5-(3-tert-butyl-5-(2,4-dioxo-3,4-dihydropyrimidin-1(2H)-yl)-2-methoxyphenyl)-1-methyl-2,3-dihydro-1H-inden-1-yl)methyl)methanesulfonamide]
- IC50 [1]: 10 to 100 nM
- IC50 [2]: 10 to 100 nM
- EC50 [3]: 100 to 1000 nM
- EC50 [4]: 10 to 100 nM

Compound: COc1c(-c2ccc3c(c2)CCC3C(C)(C)NS(C)(=O)=O)cc(-n2ccc(=O)[nH]c2=O)cc1C(C)(C)C (stereo not shown) [IB-L0-2.29, N-(2-(5-(3-tert-butyl-5-(2,4-dioxo-3,4-dihydropyrimidin-1(2H)-yl)-2-methoxyphenyl)-2,3-dihydro-1H-inden-1-yl)propan-2-yl)methanesulfonamide]
- IC50 [1]: 10 to 100 nM
- IC50 [2]: 10 to 100 nM
- EC50 [3]: 100 to 1000 nM
- EC50 [4]: 10 to 100 nM

Compound: COc1c(-c2ccc3c(c2)CCC3NNS(C)(=O)=O)cc(-n2ccc(=O)[nH]c2=O)cc1C(C)(C)C (stereo not shown) [IB-L0-2.31, N′-(5-(3-tert-butyl-5-(2,4-dioxo-3,4-dihydropyrimidin-1(2H)-yl)-2-methoxyphenyl)-2,3-dihydro-1H-inden-1-yl)methanesulfonohydrazide]
- IC50 [1]: 10 to 100 nM
- IC50 [2]: 10 to 100 nM
- EC50 [3]: 100 to 1000 nM
- EC50 [4]: 10 to 100 nM

Compound: COc1c(-c2ccc3c(c2)CCC3C(=O)NS(C)(=O)=O)cc(-n2ccc(=O)[nH]c2=O)cc1C(C)(C)C (stereo not shown) [IB-L0-2.34, 5-(3-tert-butyl-5-(2,4-dioxo-3,4-dihydropyrimidin-1(2H)-yl)-2-methoxyphenyl)-N-(methylsulfonyl)-2,3-dihydro-1H-indene-1-carboxamide]
- IC50 [1]: 10 to 100 nM
- IC50 [2]: 10 to 100 nM
- EC50 [3]: > 1000 nM
- EC50 [4]: 100 to 1000 nM

Compound: CC(C)(C)c1cc(-n2ccc(=O)[nH]c2=O)cc(-c2ccc3c(CNS(C)(=O)=O)csc3c2)c1Cl [IB-L0-2.35, N-((6-(3-tert-butyl-2-chloro-5-(2,4-dioxo-3,4-dihydropyrimidin-1(2H)-yl)phenyl)benzo[b]thiophen-3-yl)methyl)methanesulfonamide]
- IC50 [1]: 10 to 100 nM
- IC50 [2]: 10 to 100 nM
- EC50 [3]: > 1000 nM
- EC50 [4]: 100 to 1000 nM

Compound: COc1c(-c2ccc3c(c2)CCC3O)cc(-n2ccc(=O)[nH]c2=O)cc1C(C)(C)C (stereo not shown) [IB-L0-2.36, 1-(3-tert-butyl-5-(1-hydroxy-2,3-dihydro-1H-inden-5-yl)-4-methoxyphenyl)pyrimidine-2,4(1H,3H)-dione]
- IC50 [1]: 100 to 1000 nM
- IC50 [2]: 10 to 100 nM
- EC50 [3]: 100 to 1000 nM
- EC50 [4]: 10 to 100 nM

Compound: COc1c(-c2ccc3cc(CNS(C)(=O)=O)sc3c2)cc(-n2ccc(=O)[nH]c2=O)cc1C(C)(C)C [IB-L0-2.40, N-((6-(3-tert-butyl-5-(2,4-dioxo-3,4-dihydropyrimidin-1(2H)-yl)-2-methoxyphenyl)benzo[b]thiophen-2-yl)methyl)methanesulfonamide]
- IC50 [1]: 100 to 1000 nM
- IC50 [2]: 100 to 1000 nM
- EC50 [3]: > 1000 nM
- EC50 [4]: 100 to 1000 nM

Compound: COc1c(-c2ccc3c(c2)CCC3NS(C)(=O)=O)cc(-n2ccc(=O)[nH]c2=O)cc1C(C)(C)C (stereo not shown) [IB-L0-2.44, N-(5-(3-tert-butyl-5-(2,4-dioxo-3,4-dihydropyrimidin-1(2H)-yl)-2-methoxyphenyl)-2,3-dihydro-1H-inden-1-yl)methanesulfonamide]
- IC50 [1]: 100 to 1000 nM
- IC50 [2]: 100 to 1000 nM
- EC50 [3]: > 1000 nM
- EC50 [4]: > 1000 nM

Compound: COc1c(-c2ccc3c(c2)CCC3=O)cc(-n2ccc(=O)[nH]c2=O)cc1C(C)(C)C [IB-L0-2.50, 1-(3-tert-butyl-4-methoxy-5-(1-oxo-2,3-dihydro-1H-inden-5-yl)phenyl)pyrimidine-2,4(1H,3H)-dione]
- IC50 [1]: 10 to 100 nM
- IC50 [2]: 10 to 100 nM
- EC50 [3]: 100 to 1000 nM
- EC50 [4]: 100 to 1000 nM

Compound: COc1c(-c2ccsc2)cc(-n2ccc(=O)[nH]c2=O)cc1-c1ccc2c(c1)CC=C2CNS(C)(=O)=O [IB-L0-2.62, N-((6-(5-(2,4-dioxo-3,4-dihydropyrimidin-1(2H)-yl)-2-methoxy-3-(thiophen-3-yl)phenyl)-1H-inden-3-yl)methyl)methanesulfonamide]
- IC50 [1]: 10 to 100 nM
- IC50 [2]: 10 to 100 nM
- EC50 [3]: 100 to 1000 nM
- EC50 [4]: 10 to 100 nM

Compound: COc1c(-c2ccc3c(c2)CC=C3CNS(C)(=O)=O)cc(-n2ccc(=O)[nH]c2=O)cc1-c1cccs1 [IB-L0-2.63, N-((6-(5-(2,4-dioxo-3,4-dihydropyrimidin-1(2H)-yl)-2-methoxy-3-(thiophen-2-yl)phenyl)-1H-inden-3-yl)methyl)methanesulfonamide]
- IC50 [1]: 10 to 100 nM
- IC50 [2]: 10 to 100 nM
- EC50 [3]: 100 to 1000 nM
- EC50 [4]: 10 to 100 nM

Compound: COc1c(-c2ccc3c(c2)CC=C3CNS(C)(=O)=O)cc(-n2ccc(=O)[nH]c2=O)cc1-c1ccco1 [IB-L0-2.65, N-((6-(5-(2,4-dioxo-3,4-dihydropyrimidin-1(2H)-yl)-3-(furan-2-yl)-2-methoxyphenyl)-1H-inden-3-yl)methyl)methanesulfonamide]
- IC50 [1]: < 10 nM
- IC50 [2]: 10 to 100 nM
- EC50 [3]: 100 to 1000 nM
- EC50 [4]: 10 to 100 nM

Compound: COc1c(-c2ccoc2)cc(-n2ccc(=O)[nH]c2=O)cc1-c1ccc2c(c1)CC=C2CNS(C)(=O)=O [IB-L0-2.67, N-((6-(5-(2,4-dioxo-3,4-dihydropyrimidin-1(2H)-yl)-3-(furan-3-yl)-2-methoxyphenyl)-1H-inden-3-yl)methyl)methanesulfonamide]
- IC50 [1]: 10 to 100 nM
- IC50 [2]: 10 to 100 nM
- EC50 [3]: 100 to 1000 nM
- EC50 [4]: 10 to 100 nM

Compound: COc1c(C#Cc2ccc(NS(C)(=O)=O)cc2C)cc(-n2ccc(=O)[nH]c2=O)cc1C(C)(C)C [IB-L2-1.1, N-(4-((3-tert-butyl-5-(2,4-dioxo-3,4-dihydropyrimidin-1(2H)-yl)-2-methoxyphenyl)ethynyl)-3-methylphenyl)methanesulfonamide]
- IC50 [1]: 10 to 100 nM
- IC50 [2]: < 10 nM
- EC50 [3]: < 10 nM
- EC50 [4]: < 10 nM

Compound: COc1c(C#Cc2cc(F)c(NS(C)(=O)=O)cc2C)cc(-n2ccc(=O)[nH]c2=O)cc1C(C)(C)C [IB-L2-1.3, N-(4-((3-tert-butyl-5-(2,4-dioxo-3,4-dihydropyrimidin-1(2H)-yl)-2-methoxyphenyl)ethynyl)-2-fluoro-5-methylphenyl)methanesulfonamide]
- IC50 [1]: 10 to 100 nM
- IC50 [2]: < 10 nM
- EC50 [3]: 10 to 100 nM
- EC50 [4]: < 10 nM

Compound: COc1c(C#Cc2cc(F)c(NS(C)(=O)=O)cc2C(F)(F)F)cc(-n2ccc(=O)[nH]c2=O)cc1C(C)(C)C [IB-L2-1.5, N-(4-((3-tert-butyl-5-(2,4-dioxo-3,4-dihydropyrimidin-1(2H)-yl)-2-methoxyphenyl)ethynyl)-2-fluoro-5-(trifluoromethyl)phenyl)methanesulfonamide]
- IC50 [1]: 10 to 100 nM
- IC50 [2]: 10 to 100 nM
- EC50 [3]: 100 to 1000 nM
- EC50 [4]: 10 to 100 nM

Compound: COc1c(C#Cc2ccc(NS(C)(=O)=O)cc2O)cc(-n2ccc(=O)[nH]c2=O)cc1C(C)(C)C [IB-L2-1.6, N-(4-((3-tert-butyl-5-(2,4-dioxo-3,4-dihydropyrimidin-1(2H)-yl)-2-methoxyphenyl)ethynyl)-3-hydroxyphenyl)fmethanesulfonamide]
- IC50 [1]: 10 to 100 nM
- IC50 [2]: < 10 nM
- EC50 [3]: 10 to 100 nM
- EC50 [4]: < 10 nM

Compound: COc1c(C#Cc2ccc(NS(C)(=O)=O)cn2)cc(-n2ccc(=O)[nH]c2=O)cc1C(C)(C)C [IB-L2-1.8, N-(6-((3-tert-butyl-5-(2,4-dioxo-3,4-dihydropyrimidin-1(2H)-yl)-2-methoxyphenyl)ethynyl)-pyridin-3-yl)methanesulfonamide]
- IC50 [1]: 10 to 100 nM
- IC50 [2]: < 10 nM
- EC50 [3]: 10 to 100 nM
- EC50 [4]: < 10 nM
